Measured values: patent US6437185B1, “Quaternary ammonium compounds and process for preparing and using same” (Finetex, Inc., priority 1999, dated 2002)

Assays:
[1] = system: Epiocular samples (Ocular Tissue model); conditions: literature grouping, Kay and Calandra 1962; cited from earlier work
EpiDerm (Skin model) = conditions: groupings used to assign irritancy from ET-50; cited from earlier work
[2] = system: Epiocular samples (Ocular Tissue model); assay: In-vitro Mat Tek ocular irritation protocol (Epiocular, Ocular Tissue model); format: cell-based; conditions: for Ocular Results/Classification: tested at 3.0% active
Experimental: Both products were tested at 3.0% active for dermal and ocular irritation by in-vitro Mat Tek Protocols (Skin model and Ocular Tissue model).
Construction of a Dose Response Curve: The extractant solution within each well was pipetted up and down several times to insure that each is well mixed. 200 microliters of each of the mixed extraction solutions was then pipetted into separate wells of a 96 well microtiter plate. A Dynatech MR 4000 Automatic Microplate Reader was used to determine the optical density of each extract at 570 nm. With the absorbance of a negative control defined as 100%, the percent absorbencies of the articles were determined (% viability=100×(OD [article]/OD [negative control]). The calculated percentages directly correlate with the cell metabolism in the Epiocular samples.
Using a semi-log scale, the percent viability (liner “y” axis) was plotted versus the dosing time (log “x” axis). By interpolation, the time at which the viability has dropped to 50% was determined.

CCCCCCCCCCCCOS(=O)(=O)[O-].[Na+] [2% Sodium Dodecyl Sulfate, Sodium Dodecyl Sulfate]
Irritancy Classification (example substances of the Draize score / Epiocular ET-50 groups) [1]: Mild (<20.5-9.67)
Expected In vivo Irritancy (example substances of the EpiDerm ET-50 groups) (EpiDerm (Skin model)): Moderate (0.5-4)

N′,N″,N′″-Triethyl, N′,N′,N′″,N′″-Tetramethyl, N″-[(Trioxypropyl)-ω-hydroxycetyl], dipropylene triammonium triethosulfate [FINQUAT ® CT-P]
Mildness in toxicology studies (in words) ([2]; 3.0% active, dermal and ocular irritation, in-vitro Mat Tek Protocols): milder than FINQUAT® CT
Ocular Results/Classification ([2]; first table): Non-Irritancy (as in Peg 75 Lanolin)
Ocular Results/Classification ([2]; second table with the same title): Non-Irritancy (as in Peg 75 Lanolin)

O=[N+]([O-])O [Conc. Nitric Acid, Nitric Acid]
Expected In vivo Irritancy (example substances of the EpiDerm ET-50 groups) (EpiDerm (Skin model)): Severe, probably corrosive (<0.5)
